Calls of active or inactive are those of the source. The calls are words filed in the database; no cut-off is given here.
Assays:
HT-29 [1] = test: Down regulation of COX-2 level in human HT-29 cells up to 25 uM after 48 hrs by Western blot analysis; format: functional, cell-based
HT-29 [2] = test: Down regulation of survivin level in human HT-29 cells up to 25 uM after 48 hrs by Western blot analysis; format: functional, cell-based
HT-29 [3] = test: Induction of apoptosis in human HT-29 cells assessed as increase in apoptotic body formation up to 25 uM after 72 hrs by calcein-AM/ethidium homodimer-1 staining-based fluorescence microscopic analysis; format: functional, cell-based
HT-29 [4] = test: Cytotoxicity against human HT-29 cells assessed as cell death at 50 uM after 72 hrs by Propidium iodide staining-based flow cytometric analysis relative to control; format: functional
HT-29 [5] = test: Cytotoxicity against human HT-29 cells assessed as increase in cell death after 72 hrs by Propidium iodide staining-based flow cytometric analysis; format: functional
HT-29 [6] = test: Antiproliferative activity against human HT-29 cells assessed as inhibition of cell proliferation after 72 hrs by MTT assay; format: functional, cell-based; conditions: for IC50: HT-29, 72 h
L132 = test: Antiproliferative activity against human L-132 cells up to 25 uM after 72 hrs by MTT assay; format: cell-based; conditions: l132, 72 h
HT-29 [7] = test: Cell cycle arrest in human HT-29 cells assessed as accumulation at G0/G1 phase up to 5 uM after 48 hrs by propidium iodide/RNase staining based flow cytometric analysis; format: functional
HT-29 [8] = test: Antiproliferative activity against human HT-29 cells assessed as inhibition of cell proliferation at 25 uM after 72 hrs by MTT assay; format: functional; conditions: HT-29, 72 h
HT-29 [9] = test: Cell cycle arrest in human HT-29 cells assessed as accumulation at G2/M phase up to 10 uM after 48 hrs by propidium iodide/RNase staining based flow cytometric analysis; format: functional
HT-29 [10] = test: Cell cycle arrest in human HT-29 cells assessed as accumulation at S phase up to 10 uM after 48 hrs by propidium iodide/RNase staining based flow cytometric analysis; format: functional
HT-29 [11] = test: Cell cycle arrest in human HT-29 cells assessed as accumulation at S phase up to 7 uM after 48 hrs by propidium iodide/RNase staining based flow cytometric analysis; format: functional
HT-29 [12] = test: Cell cycle arrest in human HT-29 cells assessed as accumulation at G2/M phase up to 15 uM after 48 hrs by propidium iodide/RNase staining based flow cytometric analysis; format: functional
HT-29 [13] = test: Cell cycle arrest in human HT-29 cells assessed as accumulation at S phase up to 5 uM after 48 hrs by propidium iodide/RNase staining based flow cytometric analysis; format: functional

| SMILES | Activity (HT-29 [1]) | Activity (HT-29 [2]) | Activity (HT-29 [4]) [%] | Activity (HT-29 [5]) | Activity (HT-29 [6]) | IC50 (HT-29 [6]) [µM] | Activity (L132) | inhibition at 25 µM (HT-29 [8]) [%] | further results |
| --- | --- | --- | --- | --- | --- | --- | --- | --- | --- |
| C[C@@H]1CC[C@@H]2C3=C(C[C@]4(C)CCC[C@@H]1[C@H]24)C(=O)C=CC3=O | Active | Active | >50 | Dose-dependent effect | Dose-dependent effect | 8 | Non-Toxic | 71.8 | Activity (HT-29 [3]): Active; Activity (HT-29 [7]): Active |
| C[C@@H]1CC[C@H]2C(C)(C)[C@@H](O)CC[C@]2(C)C1(O)Cc1ccccc1O (some centres undefined) | – | – | – | – | – | – | – | -1.89 | – |
| CC1(C)CC[C@@H]2c3ccc(O)cc3C[C@]3(C)CCC[C@@H]1[C@H]23 | – | – | >50 | Dose-dependent effect | Dose-dependent effect | 20.5 | Non-Toxic | 112 | Activity (HT-29 [9]): Active |
| CC1(C)CC[C@@H]2c3ccc(O)c(O)c3C[C@]3(C)CCC[C@@H]1[C@H]23 | Active | Active | – | Dose-dependent effect | Dose-dependent effect | 16.5 | Non-Toxic | 118 | Activity (HT-29 [10]): Active |
| Cc1ccc(C[C@]2(O)CCC[C@H]3C(C)(C)CCC[C@@]32C)cc1 | – | – | – | – | – | – | – | 13 | – |
| CC1(C)CC[C@@H]2c3ccccc3C[C@]3(C)CCC[C@@H]1[C@H]23 | – | – | – | – | – | – | – | 22.4 | – |
| CC1(C)CC[C@@H]2c3cc(O)ccc3C[C@]3(C)CCC[C@@H]1[C@H]23 | Active | Active | >50 | Dose-dependent effect | Dose-dependent effect | 16 | Non-Toxic | 114 | Activity (HT-29 [10]): Active |
| CC1(C)CC[C@@H]2c3cc(O)c(O)cc3C[C@]3(C)CCC[C@@H]1[C@H]23 | Active | Active | – | Dose-dependent effect | Dose-dependent effect | 7.5 | Non-Toxic | 142 | Activity (HT-29 [11]): Active; Activity (HT-29 [3]): Active |
| CC1(C)CC[C@@H]2c3cc(O)ccc3C[C@@]3(C)[C@@H]2[C@H]1CCC3(C)C | Active | Active | >50 | Dose-dependent effect | Dose-dependent effect | 15 | Non-Toxic | 97.5 | Activity (HT-29 [12]): Active; Activity (HT-29 [3]): Active |
| COc1ccc(CC2(O)CCC[C@@H]3CCCC[C@@H]32)cc1 (some centres undefined) | – | – | – | – | – | – | – | 0.56 | – |
| O=c1[nH]cc(F)c(=O)[nH]1 [FLUOROURACIL] | – | – | – | inactive | Dose-dependent effect | 6.5 | Non-Toxic | – | Activity (HT-29 [13]): Active |
| CC(C)(C)c1ccc2c(c1)[C@H]1CCC(C)(C)[C@@H]3CCC[C@@](C)(C2)[C@@H]13 | – | – | – | – | – | – | – | -1.89 | – |
| CC1(C)CC[C@@H]2c3cccc(O)c3C[C@]3(C)CCC[C@@H]1[C@H]23 | – | – | – | – | – | – | – | 39.1 | – |
| CC1(C)CC[C@@H]2C3=C(C[C@]4(C)CCC[C@@H]1[C@H]24)C(=O)C=CC3=O | Active | Active | >50 | Dose-dependent effect | Dose-dependent effect | 14.5 | Non-Toxic | 124 | Activity (HT-29 [10]): Active |
| COc1ccc(C[C@]2(O)CCC[C@H]3C(C)(C)[C@@H](O)CC[C@@]32C)cc1 | – | – | – | – | – | – | – | -3.48 | – |

— ChEMBL document CHEMBL4308860, “Nature-inspired development of unnatural meroterpenoids as the non-toxic anti-colon cancer agents” (Eur J Med Chem, 2018)
